≈ marks a conversion by molar mass, not a printed value.
Tests used:
[1] = test system: mouse isolated hearts; assay: Coronary vascular resistance in Langendorff-perfused isolated hearts, Protocol 2 (CPP lowered to 30 mmHg and maintained for 50 min); details: n=6
Description: (§1) The objective of this example was to determine whether the selective and stable A2A agonist, regadenoson, can prevent or modify coronary microcirculation vasoconstriction during ischemia. To this purpose, in 60 mouse isolated hearts perfused in Langendorff configuration coronary vascular resistance (CVR) was continuously monitored for 70 min during various interventions using two different protocols. In hearts (n=9) perfused at a constant coronary perfusion pressure (CPP) of 65 mmHg CVR remained stable throughout the 70 min of the experiment.
In Protocol 2, CPP was lowered to 30 mmHg at 20 min and maintained for the remaining 50 min. In untreated hearts (n=9), the sustained lowering of CPP was accompanied by a progressive rise in CVR up to the end of the experiment when it reached a maximum of 240%±21 above baseline. Addition of regadenoson (10 nM) to the perfusate either at 10 (n=6) or 30 (n=6) min after lowering CPP caused a rapid and progressive vasodilation thereby bringing CVR to baseline values within 10 min. In summary, the isolated heart reacts to lowering of CPP with a progressive and severe vasoconstriction that can be prevented by pre-treatment with an A2A agonist.

[2] = Solubility in water; type: physicochemical
Description: In one aspect of this invention, mammalian ischemia is treated with a pharmaceutical composition including CVT-3146—regadenoson. Regadenoson has solubility in water of about 50 micrograms/mL. Therefore, regadenoson can be dissolved and administered in water so long as the desired weight amount of regadenoson can be administered in an acceptable volume. For example, a dose of about 400 micrograms can be administered in 8 mL of water. If this volume is too great for administration purposes, or if the pharmaceutical composition will be stored at other than room temperature (RT), then additional ingredients can be added to the composition to increase the solubility of regadenoson in the composition and/or to provide the resulting pharmaceutical composition with other improved properties such as improved stability and storage properties.

[3] = test system: mouse isolated hearts; assay: Coronary vascular resistance in Langendorff-perfused isolated hearts, Protocol 1 (CPP lowered to 30 mmHg for 20 min, then restored to 65 mmHg); details: for increase in CVR during lowering of CPP: n=6, p<0.001
Description: as §1
In Protocol 1, CPP was lowered to 30 mmHg at 20 min, maintained for the following 20 min and restored to 65 mmHg for the remaining 30 min. In untreated hearts (n=12), lowering CPP for 20 min increased CVR up to a maximum of 191%±9 above baseline (P<0.001).

CNC(=O)c1cnn(-c2nc(N)c3ncn([C@@H]4O[C@H](CO)[C@@H](O)[C@H]4O)c3n2)c1 [regadenoson, (1-{9-[(4S,2R,3R,5R)-3,4-dihydroxy-5-(hydroxymethyl)oxolan-2-yl]-6-aminopurin-2-yl}pyrazol-4-yl)-N-methylcarboxamide]
time to bring CVR to baseline values ([1]; regadenoson 10 nM added to perfusate 10 min after lowering CPP): ≤ 10 min | time to bring CVR to baseline values ([1]; regadenoson 10 nM added to perfusate 30 min after lowering CPP): ≤ 10 min | solubility [2]: ~50 µg/mL (≈ 128 µM) | maximum increase in CVR above baseline during lowering of CPP ([3]; regadenoson 3 nM, CPP 30 mmHg for 20 min, n=6, untreated hearts 191%±9): 131%±15 | elevated CVR remaining after restoring CPP to 65 mmHg ([3]; regadenoson 3 nM, untreated hearts 153%±10 above baseline): significantly reduced | increase in CVR during lowering of CPP ([3]; regadenoson 10 nM, CPP 30 mmHg for 20 min): abolished the increase in CVR | elevated CVR remaining after restoring CPP to 65 mmHg ([3]; regadenoson 10 nM, p<0.01): abolished | increase in CVR during lowering of CPP ([3]; regadenoson 30 nM, CPP 30 mmHg for 20 min): abolished the increase in CVR | elevated CVR remaining after restoring CPP to 65 mmHg ([3]; regadenoson 30 nM, p<0.01): abolished
